SMILES strings stand for the structures. Counter-ions that a name gives are not always drawn.

The subject of one series is healthy guineapig skin. Conditions: for activity (induction of necrosis, activation of macrophages): comparison of stereoisomeric 2-phenylglycyl-2-phenylglycine dipeptides; for histolysis / local changes at the administration site: 25 or 50 mg/animal (control 10.7 mg/animal), 7 days. An excerpt:
They were then autopsied and the injection sites (skin and muscle) were subjected to pathological-anatomical and pathological-histological evaluation.
This is a chemotactic and activating action on macrophages, which also has a tissue dissolving effect. No systemic toxic symptoms or clinically detectable changes could be observed in any of the experimental animals.

The nature of series [1]: acute toxicity, intravenous administration to rodents.
[2] abbreviates: local administration, guineapig skin.

With `N[C@@H](C(=O)N[C@@H](C(=O)O)c1ccccc1)c1ccccc1`, the “activity (induction of necrosis, activation of macrophages)” value (“activity” for short) in the series with healthy guineapig skin was “outstanding properties to induce necrosis and activate macrophages”. In addition, in the series with healthy guineapig skin (in vivo), the “general tolerance / systemic toxic symptoms” value was “no indications of general intolerance”. Moreover, in the series on healthy guineapig skin (setting [2]), the “macrophage and giant cell infiltration at the administration site” value was “massive infiltration of macrophages and giant cells”; the “histolysis / local changes at the administration site” value (shortened to “histolysis / local changes”) is “Local and sharply delineated histolysis”. Further, the LD50 in series [1] (acute experiment, administered intravenously (to rodents)) is 1,000 mg/kg. Also, the “toxicity, times lower than prior dipeptides of essential aminoacids” value in series [1] (compared with 300 mg/kg intravenously (rodents)) was determined as 3 times lower.
In the case of `NC(C(=O)NC(C(=O)O)c1ccccc1)c1ccccc1` (mixture of isomers) [reference compound], in the series on healthy guineapig skin, the “activity” value is listed as “only a very low activity”. Also, the “histolysis / local changes” value in the series on healthy guineapig skin (setting [2]) was “no local changes”.
Take `N[C@H](C(=O)N[C@H](C(=O)O)c1ccccc1)c1ccccc1` [L-2-phenylglycyl-L-2-phenylglycine, reference compound]: the “activity” value in the series on healthy guineapig skin is listed as “no activity”.
Regarding `NCC(=O)O` [glycine hydrobromide, reference compound], the “histolysis / local changes” value with healthy guineapig skin (setting [2]) was “no local changes”.

The record behind these values is US4505854A, “Optically active dipeptides and the use thereof as tissue dissolving and histolytic agent in human beings” (Nattermann & Cie GmbH, priority 1981, dated 1985).
